The target in this test is T1, AHR (UniProt P35869).
T1 sequence (P35869 1-848): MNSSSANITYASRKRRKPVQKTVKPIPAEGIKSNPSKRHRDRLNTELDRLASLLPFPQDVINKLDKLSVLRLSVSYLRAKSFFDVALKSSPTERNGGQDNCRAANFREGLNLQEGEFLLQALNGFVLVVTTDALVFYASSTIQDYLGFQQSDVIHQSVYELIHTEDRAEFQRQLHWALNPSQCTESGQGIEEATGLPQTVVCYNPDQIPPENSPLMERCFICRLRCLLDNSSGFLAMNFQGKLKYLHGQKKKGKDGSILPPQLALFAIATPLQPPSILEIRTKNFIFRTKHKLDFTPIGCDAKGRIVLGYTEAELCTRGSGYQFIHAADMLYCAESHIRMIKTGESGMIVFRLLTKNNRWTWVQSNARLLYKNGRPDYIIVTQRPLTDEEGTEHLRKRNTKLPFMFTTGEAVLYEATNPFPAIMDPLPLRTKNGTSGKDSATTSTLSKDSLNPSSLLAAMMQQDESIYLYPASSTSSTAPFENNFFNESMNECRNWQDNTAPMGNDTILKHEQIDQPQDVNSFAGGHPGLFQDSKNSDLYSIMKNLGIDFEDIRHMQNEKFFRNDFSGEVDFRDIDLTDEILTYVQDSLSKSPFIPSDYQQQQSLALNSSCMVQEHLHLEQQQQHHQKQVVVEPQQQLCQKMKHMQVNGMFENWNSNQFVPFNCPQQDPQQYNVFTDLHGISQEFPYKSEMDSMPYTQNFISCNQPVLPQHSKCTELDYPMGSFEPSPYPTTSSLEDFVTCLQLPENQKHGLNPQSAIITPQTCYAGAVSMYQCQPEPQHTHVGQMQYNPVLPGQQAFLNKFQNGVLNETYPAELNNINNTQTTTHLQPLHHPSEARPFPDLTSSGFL
Kind of test: DRE-Luciferase Reporter Assay (Alternate Method), Example 1B. Type of test: cell-based. The following applies: concentration which inhibits half of the luciferase activity induced by AHR activating ligand; DRE-luciferase reporter cell line. How it is done:
AHR binds to Dioxin Responsive Elements (DRE) upstream of genes that it activates. One measure of AHR activity is activation of a reporter gene, such as luciferase, downstream of one or multiple DRE elements. Luciferase activity will reflect activation and inhibition of AHR in the cells expressing his reporter.
Murine Hepa1-6 or Hepa-1c1c7 or other murine cell line with a DRE-luciferase reporter either stably or transiently transfected were plated in media in plates (96-well, 384-well or other plates) and incubated overnight at 37° C. in a C02 incubator or compound and agonist were added at the time of plating. Likewise, human HepG2 or other human cell line with a DRE-luciferase reporter either stably or transiently transfected were plated in media in plates (96-well, 384-well or other plates) and incubated overnight at 37° C. in a C02 incubator or compound and agonist were added at the time of plating.
At the time that cells are plated or following incubation overnight, an AHR activating ligand, such as TCDD, kynurenine, ITE (2-(1H-indole-3-ylcarbonyl)-4-thiazolecarboxylic methyl ester), VAF347, BNF (beta-naphthoflavone), FICZ (6-formylindolo(3,2-b) carbazole or other AHR ligands, was added with or without AHR antagonist.
Cells were incubated for 4, 15 or 24 hours or another time point and then lysed for determination of luciferase activity as a read-out of the AHR activation or inhibition. Luciferase was measured with a commercial kit such as the Promega Luciferase kit or any kit or reagents that provide the luciferin substrate for measuring luciferase activity. The level of luciferase with only activating ligand added was the maximum signal while the luciferase with no ligand was the minimum signal. IC50 values were determined as the concentration which inhibits half of the luciferase activity.
For the molecule `CN1CCN(c2cnn3c(N[C@@H]4CCc5[nH]c6ccccc6c5C4)nc(-c4cncc(F)c4)nc23)CC1` [Compound I-52, (3R)—N-[2-(5-Fluoro-3-pyridyl)-8-(4-methylpiperazin-1-yl)pyrazolo[1,5-a][1,3,5]triazin-4-yl]-2,3,4,9-tetrahydro-1H-carbazol-3-amine], the IC50 fell in the range of 0.5 to 1 µM.
The molecule `CC(C)c1cnn2c(N[C@@H]3CCc4[nH]c(=O)ccc4C3)nc(-c3cncc(F)c3)nc12` [Compound I-36a, (R)-6-((2-(5-Fluoropyridin-3-yl)-8-isopropylpyrazolo[1,5-a][1,3,5]triazin-4-yl)amino)-5,6,7,8-tetrahydroquinolin-2(1H)-one] yielded an IC50 of more than 1.5 µM.
Then `CC(C)c1cnn2c(N[C@H]3CCc4ccccc4C3)nc(-c3cncc(F)c3)nc12` [Compound I-48b, 2-(5-Fluoro-3-pyridyl)-8-isopropyl-N-[(2S)-tetralin-2-yl]pyrazolo[1,5-a][1,3,5]triazin-4-amine], with more than 1.5 µM.
Then `C[C@H](N)c1cnn2c(N[C@@H]3CCc4[nH]c5ccccc5c4C3)nc(-c3cncc(F)c3)nc12` [Compound I-32a, (3R)—N-[8-[(1S)-1-Aminoethyl]-2-(5-fluoro-3-pyridyl)pyrazolo[1,5-a][1,3,5]triazin-4-yl]-2,3,4,9-tetrahydro-1H-carbazol-3-amine], with less than 0.5 µM; and `C[C@@H](NCC1CC1)c1cnn2c(N[C@@H]3CCc4[nH]c5ccccc5c4C3)nc(-c3cncc(F)c3)nc12` [Compound I-20b, (3R)—N-[8-[(1R)-1-(Cyclopropylmethylamino)ethyl]-2-(5-fluoro-3-pyridyl)pyrazolo[1,5-a][1,3,5]triazin-4-yl]-2,3,4,9-tetrahydro-1H-carbazol-3-amine], with less than 0.5 µM.
As for `CC(C)(O)c1cnn2c(N[C@@H]3CCc4[nH]c5ccccc5c4C3)nc(-c3cncc(F)c3)nc12` [Compound I-9, 2-[2-(5-Fluoro-3-pyridyl)-4-[[(3R)-2,3,4,9-tetrahydro-1H-carbazol-3-yl]amino]pyrazolo[1,5-a][1,3,5]triazin-8-yl]propan-2-ol], the figure is less than 0.5 µM; as for `Nc1cnn2c(N[C@@H]3CCc4[nH]c5ccccc5c4C3)nc(-c3cncc(F)c3)nc12` [Compound I-31, 2-(5-Fluoro-3-pyridyl)-N4-[(3R)-2,3,4,9-tetrahydro-1H-carbazol-3-yl]pyrazolo[1,5-a][1,3,5]triazine-4,8-diamine], less than 0.5 µM.
As to `COCC[C@H](C)c1cnn2c(N[C@@H]3CCc4[nH]c5ccccc5c4C3)nc(-c3cncc(F)c3)nc12` [Compound I-65a, (3R)—N-[2-(5-Fluoro-3-pyridyl)-8-[(1S)-3-methoxy-1-methyl-propyl]pyrazolo[1,5-a][1,3,5]triazin-4-yl]-2,3,4,9-tetrahydro-1H-carbazol-3-amine], the IC50 is less than 0.5 µM.
Turning to `CC(C)c1cnn2c(N[C@@H]3CCc4[nH]c5cnccc5c4C3)nc(-c3cncc(F)c3)nc12` [Compound I-13a, (6R)—N-[2-(5-fluoro-3-pyridyl)-8-isopropyl-pyrazolo[1,5-a][1,3,5]triazin-4-yl]-6,7,8,9-tetrahydro-5H-pyrido[3,4-b]indol-6-amine], the IC50 was more than 1.5 µM.
As for `C[C@H](CO)c1cnn2c(N[C@@H]3CCc4[nH]c5ccccc5c4C3)nc(-c3cncc(F)c3)nc12` [Compound I-25b, (2S)-2-[2-(5-Fluoro-3-pyridyl)-4-[[(3R)-2,3,4,9-tetrahydro-1H-carbazol-3-yl]amino]pyrazolo[1,5-a][1,3,5]triazin-8-yl]propan-1-ol], the figure is less than 0.5 µM; as for `CC(C)c1cnn2c(N[C@H]3CCc4c(ccnc4N)C3)nc(-c3cncc(F)c3)nc12` [Compound I-63b, (6S)—N6-[2-(5-fluoro-3-pyridyl)-8-isopropyl-pyrazolo[1,5-a][1,3,5]triazin-4-yl]-5,6,7,8-tetrahydroisoquinoline-1,6-diamine], more than 1.5 µM; as for `CC(C)c1cnn2c(NCCCCO)nc(-c3cncc(F)c3)nc12` [Compound I-39, 4-[[2-(5-Fluoro-3-pyridyl)-8-isopropyl-pyrazolo[1,5-a][1,3,5]triazin-4-yl]amino]butan-1-ol], more than 1.5 µM.
`CC(C)c1cnn2c(N[C@@H]3CCc4[nH]c5cccnc5c4C3)nc(-c3cncc(F)c3)nc12` [Compound I-8b, (8R)—N-[2-(5-Fluoro-3-pyridyl)-8-isopropyl-pyrazolo[1,5-a][1,3,5]triazin-4-yl]-6,7,8,9-tetrahydro-5H-pyrido[3,2-b]indol-8-amine]: the IC50 was 1 to 1.5 µM.
For the molecule `CC(C)c1cnn2c(N[C@@H]3CCc4[nH]c5cc(O)ccc5c4C3)nc(-c3cncc(F)c3)nc12` [Compound I-27a, (6R)-6-[[2-(5-Fluoro-3-pyridyl)-8-isopropyl-pyrazolo[1,5-a][1,3,5]triazin-4-yl]amino]-6,7,8,9-tetrahydro-5H-carbazol-2-ol], the IC50 was more than 1.5 µM.
Then `CC(C)c1cnn2c(N[C@@H]3CCc4ccccc4C3)nc(-c3cncc(F)c3)nc12` [Compound I-48a, 2-(5-Fluoro-3-pyridyl)-8-isopropyl-N-[(2R)-tetralin-2-yl]pyrazolo[1,5-a][1,3,5]triazin-4-amine], with more than 1.5 µM.
Then `CC(C)c1cnn2c(N[C@@H]3CNc4ncccc4C3)nc(-c3cncc(F)c3)nc12` [Compound I-37a, (3S)—N-[2-(5-Fluoro-3-pyridyl)-8-isopropyl-pyrazolo[1,5-a][1,3,5]triazin-4-yl]-1,2,3,4-tetrahydro-1,8-naphthyridin-3-amine], with 0.5 to 1 µM.
Then `CC(C)c1cnn2c(N[C@@H]3CNc4ncncc4C3)nc(-c3cncc(F)c3)nc12` [Compound I-60b, (6S)—N-[2-(5-fluoro-3-pyridyl)-8-isopropyl-pyrazolo[1,5-a][1,3,5]triazin-4-yl]-5,6,7,8-tetrahydropyrido[2,3-d]pyrimidin-6-amine], with less than 0.5 µM; and `C[C@H](NC(=O)N1CCOCC1)c1cnn2c(N[C@@H]3CCc4[nH]c5ccccc5c4C3)nc(-c3cncc(F)c3)nc12` [Compound I-56a, N-[(1S)-1-[2-(5-Fluoro-3-pyridyl)-4-[[(3R)-2,3,4,9-tetrahydro-1H-carbazol-3-yl]amino]pyrazolo[1,5-a][1,3,5]triazin-8-yl]ethyl]morpholine-4-carboxamide], with less than 0.5 µM; and `COc1cncc(-c2nc(N[C@@H]3CCc4[nH]c5ccccc5c4C3)n3ncc(C(C)C)c3n2)c1` [Compound I-3, (3R)—N-[8-Isopropyl-2-(5-methoxy-3-pyridyl)pyrazolo[1,5-a][1,3,5]triazin-4-yl]-2,3,4,9-tetrahydro-1H-carbazol-3-amine], with more than 1.5 µM.
`CC(C)c1cnn2c(N[C@@H]3CCc4[nH]c5cccc(O)c5c4C3)nc(-c3cncc(F)c3)nc12` [Compound I-29b, (6R)-6-[[2-(5-Fluoro-3-pyridyl)-8-isopropyl-pyrazolo[1,5-a][1,3,5]triazin-4-yl]amino]-6,7,8,9-tetrahydro-5H-carbazol-4-ol] registered an IC50 of more than 1.5 µM.
Then `C[C@@H](O)c1cnc2c(N[C@@H]3CCc4[nH]c5ccccc5c4C3)nc(-c3cncc(F)c3)nn12` [Compound I-42b, (1R)-1-[2-(5-Fluoro-3-pyridyl)-4-[[(3R)-2,3,4,9-tetrahydro-1H-carbazol-3-yl]amino]imidazo[2,1-f][1,2,4]triazin-7-yl]ethanol], with less than 0.5 µM.
As for `Cc1cnc2c(N[C@@H]3CCc4[nH]c5ccccc5c4C3)nc(-c3cncc(F)c3)nc2c1` [Compound I-14, (3R)—N-[2-(5-fluoro-3-pyridyl)-7-methyl-pyrido[3,2-d]pyrimidin-4-yl]-2,3,4,9-tetrahydro-1H-carbazol-3-amine], the figure is 1 to 1.5 µM.
Then `CC(C)c1cnn2c(N[C@H]3CCc4[nH]ncc4C3)nc(-c3cncc(F)c3)nc12` [Compound I-7b, 2-(5-fluoro-3-pyridyl)-8-isopropyl-N-[(5S)-4,5,6,7-tetrahydro-1H-indazol-5-yl]pyrazolo[1,5-a][1,3,5]triazin-4-amine], with 1 to 1.5 µM.

The values are drawn from patent publication US20220144839A1, “INDOLE AHR INHIBITORS AND USES THEREOF” (Ikena Oncology, Inc., priority 2018, published 2022).
